In patent publication US7504243B2, “Methods for the production of biliverdin” (The United States of America as represented by the …, priority 2004, dated 2009):

System: CaHMX1 promoter
Test: Renilla luciferase reporter driven by the CaHMX1 promoter in knock-in strain CAMP Ki-29
Type: cell-based, Candida albicans
Settings: for Luciferase Activity: strain Ki-29, iron-replete medium, 30° C., 15 min, 1 mg/ml protein, mean±S.D. of two experiments, light units per 5×10^7 cells/assay point
Text: and cloning into pCR-BluntII TOPO (Invitrogen). The inserted fragment is then excised with SstI and PstI and cloned into plasmid pCRW3 (Srikantha, T. et al. (1996) “THE SEA PANSY RENILLA RENIFORMIS LUCIFERASE SERVES AS A SENSITIVE BIOLUMINESCENT REPORTER FOR DIFFERENTIAL GENE EXPRESSION IN CANDIDA ALBICANS,” J. Bacteriol. 178:121-129) using similar sites resulting in plasmid pPt14. This plasmid was linearized at the unique KpnI site in the CaHMX1 promoter (see, FIG. 2, Panel D) to enable recombination into the CaHMX1 genomic site in the C. albicans strain Red 3/6 (Srikantha, T. et al. (1996) “THE SEA PANSY RENILLA RENIFORMIS LUCIFERASE SERVES AS A SENSITIVE BIOLUMINESCENT REPORTER FOR DIFFERENTIAL GENE EXPRESSION IN CANDIDA ALBICANS,” J. Bacteriol. 178:121-129). […] This knock-in procedure is desirable because the reporter plasmid pPt14 is not functional when integrated into the Ade2 locus when introduced as an episome. The resulting strain, CAMP Ki-29, is used for all reporter assays discussed herein. The correct insertion sites of the preceding constructs in the genomes of strains CAMP 50 and CAMP Ki-29 are verified by Southern blotting.
Luciferase Assays—Reporter assays use C. albicans cells that are grown at 30° C. in minimal YNB medium with ammonium sulfate and 2% glucose. 5×10^7 cells were harvested, cell extracts were obtained by glass bead lysis (Srikantha, T. et al. (1996) “THE SEA PANSY RENILLA RENIFORMIS LUCIFERASE SERVES AS A SENSITIVE BIOLUMINESCENT REPORTER FOR DIFFERENTIAL GENE EXPRESSION IN CANDIDA ALBICANS,” J. Bacteriol. 178:121-129), and luminescence is determined using coelenterazine as a substrate (Promega). Luciferase activity is defined as the number of light units using 5×10^7 cells/assay point in 200 μl of lysis buffer using a 5-μl volume for light measurement. To assess regulation of the promoter by iron, the ferrous iron chelator ferrozine is added to cell cultures in the presence of FAS to buffer iron concentrations as described (Philpott, C. C. et al. (1998) “CELL-CYCLE ARREST AND INHIBITION OF G1 CYCLIN TRANSLATION BY IRON IN AFT1-1^UP YEAST,” EMBO J. 17, 5026-5036) (see also, Chaney, R. L. (1988) “PLANTS CAN UTILIZE IRON FROM IRON-N,N′-DI-2 HYDROXYBENZOYLETHYLENEDIAMINE-N,N′-DIACETIC ACID, A FERRIC CHELATE WITH 1,000,000 GREATER FORMATION CONSTANT THAN IRON-EDDHA,” J. Plant Nutr. 11, 1033-1050). FAS added to 1 mM ferrozine at 10, 100, and 400 μM represents low, optimal, and high levels of iron, respectively.
To ensure that this induction is specific for Hb, several control proteins are tested for their ability to stimulate luciferase activity in strain Ki-29 (Table 1). […] Therefore, the iron in Hb is not essential for activity, but the native conformation of globin induced by porphyrin binding is required.

| Substance | Luciferase Activity | further results |
| --- | --- | --- |
| Apo-transferrin: control protein from Sigma | 64.4 ± 11.8 |  |
| Casein | 38.6 ± 8.1 |  |
| CoPPIX-globin: The cobalt analog of Hb; cobalt protoporphyrin IX substituted for the heme in globin | 161.7 ± 24 |  |
| Fetuin: control protein from Sigma | 59.3 ± 5.9 |  |
| Holo-transferrin: ferroprotein transferrin, control protein from Sigma | 20.7 ± 0.55 |  |
| hemin [reference compound] |  | increase in activity over the iron-replete control when hemin is added to Hb combined with ferrozine (24 h, Hb 25 μM + ferrozine 100 μM + hemin 25 μM): 2.5 fold; increase of CaHMX1 promoter activity by hemin after 24 h (CAMP Ki-29 cells, hemin 25 μM, 24 h): about 2 fold; lag time before induction of promoter activity (iron-deficient medium, 25 μM hemin, extended time course): 3 h |
